We go through 14 compounds from patent US6780853B1, “Neuroactive steroids of the androstane and pregnane series” (priority 1995, dated 2004).

In general, IC50 refers to the point on the concentration scale where inhibition reaches its midpoint. As usually defined, the melting point is the temperature, or range, at which the solid turns liquid.

Series [1] deals with GABA receptor complex (GRC). The series is described as follows: [35S]TBPS binding in rat cerebral cortex P2 homogenate. Particulars: for IC50: concentration to inhibit 50% of control [35S]TBPS binding, 2 nM [35S]TBPS; for IMAX (maximum inhibition): maximum inhibition of [35S]TBPS binding. The method, boiled down: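 Male Sprague-Dawley rat cortical P2 homogenate (0.5 mg protein) incubated with 2 nM [35S]TBPS in 50 mM Na/K phosphate pH 7.4, 200 mM NaCl, with GABA plus (+)bicuculline, 90 min at 25 °C. Filter-bound radioactivity counted; non-specific binding with […]; IC50 and maximal inhibition by nonlinear regression.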

Series [2] relates to time spent on the open-arms. The series is described as follows: Elevated plus-maze test. Particulars: IP, 50% hpbcd, 10 mg/kg. Type of series: in vivo, N.I.H. Swiss-Webster mice. The source says: The theoretical basis for the elevated plus-maze test is similar to that of the fight/dark transition test. As it was described previously by Pellow et al. J. Neurosci. Meth. 14:149-167 (1985)), the elevated plus-maze apparatus is designed to utilize the mice's natural aversion to open spaces. The apparatus consists of two open-arms and two enclosed-arms. The elevated plus-maze test allows for two measures of anxiety, the number of entries into the open-arms and the time spent on the open-arms, both expressed as a percentage of the total number of entries and time spent in/on both the open-arms and enclosed-arms.
Male N.I.H Swiss-Webster mice (Harlan, Indianapolis, Ind.) weighing 15-20 g were housed four per cage in polyethylene cages with sawdust bedding. The colony room was environmentally controlled (22° C.) with a 12 hr light/dark cycle (0600-1800 hr). Food and water were available ad libitum, except during testing. The experiments were run from 0700-1500 hr and groups were counterbalanced for time of day effects. Mice were only administered drug or vehicle once.
The method used was previously described (Lister, Psychopharmacol. 92:180-185 (1987)). The apparatus included two open arms perpendicular to two enclosed arms elevated 50 cm from the floor. Each arm was 50 cm long and the walls of the enclosed arms were 40 cm tall. The maze was made completely of black plexiglass. Incandescent 200 W light bulbs were above each of the open arms to produce a strong contrast between the open arms and the enclosed arms.
[…] Swiss-Webster mice were placed in the center of the plus-maze facing an open arm. During the 5 min test period, the number of entries onto the open arms and the enclosed arms, and the time spent in the open arms and enclosed arms were measured. All four paws had to be within an arm for the dependent variable to be measured. Therefore, the time spent in the center of the maze is not counted, so the total time spent in the open arms and the enclosed arms may not equal 5 min.

The subject of the next series is loss-of-righting reflex. The series is described as follows: Anesthetic activity, loss-of-righting reflex. Type of series: in vivo, mice. Particulars: iv. The protocol:
The compounds of and used in the invention can also be used for anesthetic indications at high doses. However, the preferred route of administration to induce anesthesia is intravenous (i.v.) administration. In animals, a drug's anesthetic properties is measured by the drug's ability to produce a loss-of-righting reflex. The loss-of-righting reflex is defined as the inability of an animal to right itself within 30 seconds when placed on its back. Mice were administered drug i.v. in the lateral tail vein. Following administration, mice were placed on their backs and observed for loss-of-righting reflex.

In the next series the test system is Progesterone Receptors. The series is described as follows: Inhibition of 3H-Progesterone Binding to the Bovine Uteral Progesterone Receptors. Conditions: competitor 10^−6M; 3H-progesterone 0.15 nM.
In series [3] the target is T1, Mineralocorticoid Receptors (Rattus norvegicus, UniProt P22199).
T1 construct: To isolate the mineralocorticoid receptor, brain cytosol fractions were prepared; from tissue; host or cells: brain (hippocampal) cytosol of adrenalectomized rats
T1 sequence (P22199 1-981): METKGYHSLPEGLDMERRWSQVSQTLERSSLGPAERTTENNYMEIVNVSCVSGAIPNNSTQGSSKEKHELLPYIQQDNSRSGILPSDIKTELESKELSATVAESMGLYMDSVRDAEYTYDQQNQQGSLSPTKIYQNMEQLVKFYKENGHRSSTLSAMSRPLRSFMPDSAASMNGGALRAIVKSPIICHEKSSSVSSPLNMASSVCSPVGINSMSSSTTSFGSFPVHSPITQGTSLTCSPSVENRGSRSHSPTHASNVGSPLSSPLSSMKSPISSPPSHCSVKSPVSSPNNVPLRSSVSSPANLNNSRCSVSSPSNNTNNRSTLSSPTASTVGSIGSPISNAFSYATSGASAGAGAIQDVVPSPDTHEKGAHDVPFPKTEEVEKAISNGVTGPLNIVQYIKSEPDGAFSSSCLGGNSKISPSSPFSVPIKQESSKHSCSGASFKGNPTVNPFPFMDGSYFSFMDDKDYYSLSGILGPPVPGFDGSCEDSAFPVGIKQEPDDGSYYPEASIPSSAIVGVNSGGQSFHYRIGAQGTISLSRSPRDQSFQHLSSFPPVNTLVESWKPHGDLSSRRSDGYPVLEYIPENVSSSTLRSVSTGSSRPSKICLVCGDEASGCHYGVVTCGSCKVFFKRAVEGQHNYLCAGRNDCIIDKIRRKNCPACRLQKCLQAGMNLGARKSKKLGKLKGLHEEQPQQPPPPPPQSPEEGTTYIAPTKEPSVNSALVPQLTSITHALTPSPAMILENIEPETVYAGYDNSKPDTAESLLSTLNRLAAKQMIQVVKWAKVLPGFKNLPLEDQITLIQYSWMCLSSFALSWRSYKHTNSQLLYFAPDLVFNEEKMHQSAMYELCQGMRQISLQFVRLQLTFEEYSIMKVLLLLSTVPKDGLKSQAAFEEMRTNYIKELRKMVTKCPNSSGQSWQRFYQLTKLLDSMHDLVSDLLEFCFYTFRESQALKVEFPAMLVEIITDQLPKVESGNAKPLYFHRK
The series is described as follows: Inhibition of 3H-Aldosterone Binding to Hippocampal Mineralocorticoid Receptors. Particulars: competitor 10^−6M; 3 nM 3H-aldosterone, RU28362 0.5 μM. The protocol:
(§1) Various hormonal activities of representative neuroactive steroids were further studied through testing their potential estrogenic, mineralocorticoid and glucocorticoid activities. These activities were analyzed by monitoring the ability of the compounds to inhibit binding of the steroid hormones to their respective hormone receptors.
In Table 4, rats were adrenalectornized 3 days prior to sacrifice.

A further series has as its target T2, Estrogen Receptors (Bos taurus, UniProt P49884).
T2 construct: from tissue; host or cells: bovine uterus cytosol
T2 sequence (P49884 1-596): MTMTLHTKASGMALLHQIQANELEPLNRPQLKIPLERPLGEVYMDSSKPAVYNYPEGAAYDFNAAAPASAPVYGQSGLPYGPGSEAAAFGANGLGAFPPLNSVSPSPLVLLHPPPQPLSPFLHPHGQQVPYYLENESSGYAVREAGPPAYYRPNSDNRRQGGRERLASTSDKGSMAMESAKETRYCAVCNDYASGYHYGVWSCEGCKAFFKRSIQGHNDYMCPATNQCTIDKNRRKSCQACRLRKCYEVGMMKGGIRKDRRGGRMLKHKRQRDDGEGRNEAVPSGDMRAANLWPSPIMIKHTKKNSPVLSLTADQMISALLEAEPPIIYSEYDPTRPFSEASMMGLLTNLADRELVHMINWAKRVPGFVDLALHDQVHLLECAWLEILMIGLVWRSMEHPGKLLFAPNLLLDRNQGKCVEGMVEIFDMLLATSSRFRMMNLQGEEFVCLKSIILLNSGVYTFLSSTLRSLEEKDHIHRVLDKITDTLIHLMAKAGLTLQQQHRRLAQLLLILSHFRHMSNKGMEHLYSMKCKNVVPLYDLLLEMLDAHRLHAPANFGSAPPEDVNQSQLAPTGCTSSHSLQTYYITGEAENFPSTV
The series is described as follows: Inhibition of 3H-Estradiol Binding to Bovine Uteral Estrogen Receptors. Particulars: competitor 10^−6M; 3H-estradiol 0.15 nM. The protocol: as §1

Series [4] relates to metrazol induced convulsions. The series can be described thus: Antimetrazol activity in mice. Conditions: IP, 50% hpbcd, 10 mg/kg, 10 min before metrazol 85 mg/kg. Type of series: in vivo. The protocol:
Experiments were also performed to determine the physiological relevance of neuroactive steroid and GABA receptor interactions by assessing the ability of compounds of the present invention to prevent metrazol induced convulsions in mice. Mice were injected with various doses of the test compounds of the invention, 10 minutes prior to the injection of metrazol. The time to onset of myoclonus (presence of forelimb clonic activity) induced by metrazol was determined by observing each mouse for a period of 30 minutes. In control mice, metrazol (85 mg/kg) will induce convulsion in 95% of the animals.
The anticonvulsant tests are similar to that described above.

`COC1CCC2C3CCC4CC(O)(C(F)(F)F)CCC4C3CCC12C` (stereo not drawn) [3α-Hydroxy-17β-methoxy-3β-trifluoromethyl-19-nor-5β-androstane] gave a melting point of 40 to 42 °C. In series [1], the IC50 was found to be 93 nM and the “IMAX (maximum inhibition)” value was 115%. Moreover, in series [2], the “Plus-Maze (% Control), time spent on the open-arms” value (from here on “Plus-Maze (% Control), time spent”) came to 107 % Control. The “Loss-of-Righting Reflex (%)” value in the series with loss-of-righting reflex (50% hpbcd, 10 mg/kg) came out at 62.5%.

For `C[C@H](O)[C@H]1CC[C@H]2[C@@H]3CC[C@H]4C[C@H](O)CC[C@]4(C)[C@H]3CC[C@]12C` [5α-pregnan-3α,20-diol, 5α-pregnan-3α,20α-diol], the “% of Inhibition” value in the series with Progesterone Receptors came out at 6%; in series [3], 0%; on Estrogen Receptors, 0%.

With `CCC(=O)[C@@]1(C)CC[C@H]2[C@@H]3CCC4=CC(=O)CCC4=C3CC[C@@]21C` [Example R5020], in the series on Progesterone Receptors, the “% of Inhibition” value worked out at 100%.

As to `CC(=O)[C@H]1CC[C@H]2[C@@H]3CC[C@@H]4C[C@H](O)CC[C@]4(C)[C@H]3CC[C@]12C` [5β-pregnan-3α-of-20-one, 5β-pregnan-3α-ol-20 -one], the “% of Inhibition” value with Progesterone Receptors is 9%.

In turn, `COC1CCC2C3CCC4CC(O)(C(F)(F)F)CCC4(C)C3CCC12C` (stereo not drawn) [3α-Hydroxy-17β-methoxy-3β-trifluoromethyl-5β-androstane] [3β-trifluoromethyl-3α-hydroxy-17β-methoxy-5β-androstane] registered a melting point of 122 to 127 °C. In series [1], the IC50 turned out to be 216 nM and the “IMAX (maximum inhibition)” value was 103%. Further, the “% Protected” value in series [4] is given as 37.5%. Also, in series [2], the “Plus-Maze (% Control), time spent” value was determined as 115 % Control. In the series on loss-of-righting reflex (10% hpbcd, 20 mg/kg), the “Loss-of-Righting Reflex (%)” value is 37.5%.

`C#CC1(O)CCC2C(CCC3C2CCC2(C)C(OC)CCC32)C1` (stereo not drawn) [3β-Ethynyl-3α-hydroxy-17β-methoxy-19-nor-5β-androstane]: the melting point is 152 to 154 °C. Also, in series [1], the IC50 was determined as 56 nM and the “IMAX (maximum inhibition)” value is listed as 107%. Moreover, the “Plus-Maze (% Control), time spent” value in series [2] is recorded as 158 % Control. Further, in the series with loss-of-righting reflex (50% hpbcd, 10 mg/kg), the “Loss-of-Righting Reflex (%)” value was 100%.

`C=C(C)C#CC1(O)CCC2(C)C(CCC3C2CCC2(C)C(OC)CCC32)C1` (stereo not drawn) [3α-Hydroxy-17β-methoxy-3β-(3′-methylbut-3′-en-1′-ynyl)-5β-androstane]: the “% Protected” value in series [4] came out at 87.5%. Further, the “Loss-of-Righting Reflex (%)” value in the series on loss-of-righting reflex (50% hpbcd, 10 mg/kg) stood at 100%.

Take `C[C@]12CC[C@@H](O)C[C@@H]1CC[C@@H]1[C@@H]2CC[C@]2(C)[C@@H](C(=O)CSc3ccncc3)CC[C@@H]12` [3α-hydroxy-21-(pyrid-4-ylthio)-5α-pregnan-20-one]: the melting point lay within 154 to 156 °C. In series [1], the IC50 was 23 nM and the “IMAX (maximum inhibition)” value is given as 98%. In series [4], the “% Protected” value amounted to 62.5%. In addition, the “Plus-Maze (% Control), time spent” value in series [2] came to 148 % Control.

As for 5α-pregnan-3β,20-trimethyl-3α,20-diol, the figures for the “% of Inhibition” value (with Progesterone Receptors; in series [3]; at Estrogen Receptors) were 8%, 0% and 0%, respectively.

Take `CC(O)C1CCC2C3CCC4CC(O)CCC4(C)C3CCC12C` (stereo not drawn) [5β-pregnan-3α,20α-diol]: the “% of Inhibition” value in the series with Progesterone Receptors worked out at 0%; in series [3], 0%; on Estrogen Receptors it was 8%.

As to `CC(=O)[C@H]1CC[C@H]2[C@@H]3CC[C@H]4C[C@H](O)CC[C@]4(C)[C@H]3CC[C@]12C` [3α-Hydroxy-5α-pregnan-20-one, reference compound], in series [1], the IC50 was 37 nM and the “IMAX (maximum inhibition)” value was 95%. Further, the “% of Inhibition” value with Progesterone Receptors was 14%.

For `C[C@]12CC[C@@H](O)C[C@@H]1CC[C@@H]1[C@@H]2CC[C@]2(C)[C@@H](C(=O)CO)CC[C@@H]12` [3α,21-Dihydroxy-5α-pregnan-20-one, reference compound], in series [1], the IC50 was 76 nM and the “IMAX (maximum inhibition)” value is recorded as 100%. Besides, the “% of Inhibition” value with Progesterone Receptors was 13%.

As for `CC(=O)[C@H]1CC[C@H]2[C@@H]3CC[C@H]4C[C@H](O)CC[C@]4(C)[C@H]3C(=O)C[C@]12C` [3α-Hydroxy-5α-pregnan-11,20-dione, reference compound], in the series with loss-of-righting reflex (50% hpbcd, 10 mg/kg), the “Loss-of-Righting Reflex (%)” value amounted to 37.5%.

In the case of `COC1CCC2C3CCC4CC(O)(C#Cc5ccc(C(C)=O)cc5)CCC4(C)C3CCC12C` (stereo not drawn) [3β-(4′-acetylphenylethynyl)-3α-hydroxy-17β-methoxy-5β-androstane], the melting point was 189 to 191 °C. Further, in series [1], the IC50 was 20 nM and the “IMAX (maximum inhibition)” value was determined as 104%. Besides, in series [4], the “% Protected” value is 25%. In series [2], the “Plus-Maze (% Control), time spent” value is 129 % Control.
